Molecular target: T1, SUMO E1 SAE1 Q312A mutant (Homo sapiens, UniProt Q9UBE0+Q9UBT2, Q312A)
T1 construct: GST (N); made in house; host or cells: Escherichia coli BL21
T1 sequence (Q9UBE0 1-346 Q312A): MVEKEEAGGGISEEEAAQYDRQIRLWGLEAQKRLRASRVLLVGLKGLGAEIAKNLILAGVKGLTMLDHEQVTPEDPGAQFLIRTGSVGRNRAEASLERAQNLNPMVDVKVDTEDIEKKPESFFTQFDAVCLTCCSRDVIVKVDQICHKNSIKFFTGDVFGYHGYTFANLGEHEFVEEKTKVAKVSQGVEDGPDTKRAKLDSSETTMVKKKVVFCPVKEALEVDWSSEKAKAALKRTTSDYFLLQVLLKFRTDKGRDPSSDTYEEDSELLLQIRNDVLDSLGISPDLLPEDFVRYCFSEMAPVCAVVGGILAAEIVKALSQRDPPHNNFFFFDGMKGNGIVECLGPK
T1 sequence (Q9UBT2 1-640): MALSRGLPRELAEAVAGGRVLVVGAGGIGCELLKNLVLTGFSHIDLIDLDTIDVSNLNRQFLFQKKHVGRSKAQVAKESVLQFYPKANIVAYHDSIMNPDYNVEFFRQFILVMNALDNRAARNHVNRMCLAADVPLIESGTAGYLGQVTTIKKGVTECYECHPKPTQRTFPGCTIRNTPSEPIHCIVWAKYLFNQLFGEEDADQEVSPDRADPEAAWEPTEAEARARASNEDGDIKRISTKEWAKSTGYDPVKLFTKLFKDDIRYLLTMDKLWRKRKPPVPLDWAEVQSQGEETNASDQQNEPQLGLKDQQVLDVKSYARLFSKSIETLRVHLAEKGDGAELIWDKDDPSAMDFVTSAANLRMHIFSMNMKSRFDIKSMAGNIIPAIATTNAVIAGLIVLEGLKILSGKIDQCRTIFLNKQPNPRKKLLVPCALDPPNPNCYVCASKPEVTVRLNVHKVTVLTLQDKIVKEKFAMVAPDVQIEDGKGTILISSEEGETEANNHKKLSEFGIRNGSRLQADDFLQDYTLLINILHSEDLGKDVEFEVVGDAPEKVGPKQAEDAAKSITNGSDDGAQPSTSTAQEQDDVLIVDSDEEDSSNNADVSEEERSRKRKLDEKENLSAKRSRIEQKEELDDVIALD
Assay: SUMO E1 activity assays with SAE1 Q312A mutant
Type: biochemical
Method: Figure 3 SUMO-specific activating enzyme, E1, is a direct target of N106. Mechanism of action of N106 on individual steps in the SUMOylation cascade in vitro. (a) Inorganic pyrophosphate resulting from ATP hydrolysis in E1-catalysed SUMO-1 activation in the presence of increasing concentration of N106 compound was assessed by fluorogenic pyrophosphate assay kit. Recombinant human SUMO-specific E1 (0.05 μM), human Ubc9 (0.25 μM), human SUMO-1 (12.5 μM) and ATP (1 mM) were incubated with increasing concentration of N106 for 30 min at 37 °C and quantified using a fluorescence microplate reader. (b) The SAE2-SUMO-1 conjugation was detected followed by western blotting with anti-SAE2 antibodies. SUMO E1 (0.05 μM), SUMO-1 (12.5 μM) and ATP (1 mM) were co-incubated with increasing concentration of N106 for 30 min at 37 °C. The reaction mixtures were separated on 7.5% SDS–PAGE gel under non-reducing conditions. (c) E2-SUMO-1 conjugation was visualized by western blotting with anti-Ubc9 antibody. SUMO E1 (0.05 μM), Ubc9 (0.25 μM), SUMO-1 (12.5 μM) and ATP (1 mM) were incubated without or with increasing concentration of N106 for 30 min at 37 °C. […] (e) ATP hydrolytic activity of WT and mutant SUMO E1 are determined. (f) The E1-SUMO-1 conjugation was detected followed by western blot analysis with anti-SAE2 antibody. *The SAE2-SUMO-1 conjugated bands. […]

ATP hydrolysis activity with N106, compared with wild-type protein (Q312A mutant): significantly lower
SUMO E1-SUMO and SUMO E2-SUMO conjugations in the presence of N106, compared with WT (Q312A mutant SAE1): weaker
SMILES: COc1ccc(-c2nnc(Nc3nc4c(OC)cccc4s3)o2)cc1 [Compound N106, N-(4-methoxybenzo[d]thiazol-2-yl)-5-(4-methoxyphenyl)-1,3,4-oxadiazol-2-amine]

— article PMC4467461, “Small-molecule activation of SERCA2a SUMOylation for the treatment of heart failure” (Nature Communications, 2015)
